Reference: patent US20110152090A1, “HERBICIDAL COMPOSITIONS COMPRISING FLUFENACET” (Bayer CropScience AG, priority 2009, published 2011)

Experiments:
Type in all cases: in vivo
[1] = test system: MATCH (Matricaria chamomilla), sensitive and resistant; assay: Greenhouse trial: resistant biotypes, PE application (test method 9); conditions: g of AS/ha: (A) 90, (B) 1200, (C) 90, iodosulfuron 10; for activity MATCH resistant (visual scale 0-100%): resistant biotype; for activity MATCH sensitive (visual scale 0-100%): sensitive biotype
Description: (§1) In the standard design of the test, seeds of various broad-leaved weed and weed grass biotypes (origins) were sown in a 8-13 cm diameter pot filled with natural soil of a standard field soil (loamy silt; non-sterile) and covered with a covering soil layer of about 1 cm. The pots were then cultivated in a greenhouse (12-16 h of light, temperature day 20-22° C., night 15-18° C.) until the time of application. The pots were treated on a laboratory track sprayer with spray liquors comprising the compositions according to the invention, mixtures of the prior art or components used individually. Application of the active compounds or active compound combinations formulated as WG, WP, EC or otherwise was carried out at the appropriate growth stages of the plants. The application rate for the spray application was 100-600 l of water/ha. After the treatment, the plants were returned to the greenhouses.
(§2) About 3 weeks after the application, the soil action or/and foliar action was assessed visually according to a scale of 0-100% in comparison to an untreated comparative group: 0%=no noticeable effect compared to the untreated comparative group; 100%=full effect compared to the untreated comparative group.
(§3) (notes: the term “seeds” also includes vegetative propagation forms such as, for example, rhizome pieces; abbreviations used: h light=hours of illumination, g of AS/ha=gram of active substance per hectare, l/ha=liter per hectare, S=sensitive, R=resistant) • 1. Pre-emergence action against weeds: seeds of various broad-leaved weed and weed grass biotypes (origins) were sown in a 8-13 cm diameter pot filled with natural soil of a standard field soil (loamy silt; non-sterile) and covered with a covering soil layer of about 1 cm. The pots were then cultivated in a greenhouse (12-16 h of light, temperature day 20-22° C., night 15-18° C.) until the time of application. The pots were treated at the BBCH stage 00-10 of the seeds/plants on a laboratory track sprayer with spray liquors comprising the compositions according to the invention, mixtures or components used individually, as WG, WP, EC or other formulations. The application rate for the spray application was 100-600 l of water/ha. After the treatment, the plants were returned to the greenhouses and, when required, treated with fertilizer and watered. • 2. Post-emergence action against weeds: seeds of various broad-leaved weed and weed grass biotypes (origins) were sown in a 8-13 cm diameter pot filled with natural soil of a standard field soil (loamy silt; non-sterile) and covered with a covering soil layer of about 1 cm. The pots were then cultivated in a greenhouse (12-16 h of light, temperature day 20-22° C., night 15-18° C.) until the time of application. The pots were treated at various BBCH stages between 11-25 of the seeds/plants, i.e. generally between two to three weeks after the start of the cultivation, on a laboratory track sprayer with spray liquors comprising the compositions according to the invention, mixtures or components used individually, as WG, WP, EC or other formulations. The application rate for the spray application was 100-600 l of water/ha. After the treatment, the plants were returned to the greenhouses and, when required, treated with fertilizer and watered. • 3. Pre-emergence action against weeds with and without incorporation of active compound: seeds of various broad-leaved weed and weed grass biotypes (origins) were sown in a 8-13 cm diameter pot filled with natural soil of a standard field soil (loamy silt; non-sterile). […]

[2] = test system: STEME (Stellaria media), sensitive and resistant; assay: as above; conditions: g of AS/ha: (A) 90, (B) 1200, (C) 90, iodosulfuron 10; for activity STEME resistant (visual scale 0-100%): resistant biotype; for activity STEME sensitive (visual scale 0-100%): sensitive biotype
Description: as §1, §2, §3

[3] = test system: LOLSS (Lolium species), sensitive and resistant; assay: as above; conditions: g of AS/ha: (A) 90, (B) 1200, (C) 90, iodosulfuron 10; for activity LOLSS resistant (visual scale 0-100%): resistant biotype; for activity LOLSS sensitive (visual scale 0-100%): sensitive biotype
Description: as §1, §2, §3

[4] = test system: MATCH (Matricaria chamomilla); assay: Greenhouse trial: different soil types (test method 8); conditions: g of AS/ha: (A) 120, (B) 1200, (C) 90; for Difference of the soil types, MATCH: IU/EC73 soil vs IU soil
Description: as §1, §2, §3

LOLPE (Lolium perenne) [5] = assay: as above; conditions: g of AS/ha: (A) 120, (B) 1200, (C) 90
Description: as §1, §2, §3

AVEFA (Avena fatua) [6] = assay: Greenhouse trial: pre-sowing application vs PE application (test method 6)
Description: as §1, §2, §3

LOLPE (Lolium perenne) [7] = assay: as above
Description: as §1, §2, §3

[8] = test system: HORVS (Hordeum vulgare, summer barley); assay: Greenhouse trial: different soil types (test method 8), crop; conditions: Hordeum vulgare (summer barley), in vivo
Description: as §1, §2, §3

STEME (Stellaria media) [9] = assay: Greenhouse trial: PE soil application vs incorporation into the soil (test methods 1, 3); conditions: g of AS/ha: (A) 90, (B) 1200, (C) 90, (D) 300
Description: as §1, §2, §3

POAAN (Poa annua) [10] = assay: as above; conditions: g of AS/ha: (A) 90, (B) 1200, (C) 90, (D) 300
Description: as §1, §2, §3

AVEFA (Avena fatua) [11] = assay: Greenhouse trial: different irrigation systems (test method 7); conditions: g of AS/ha: (A) 120, (B) 1200, (C) 90
Description: as §1, §2, §3

[12] = test system: MATCH (Matricaria chamomilla); assay: as above; conditions: g of AS/ha: (A) 120, (B) 1200, (C) 90
Description: as §1, §2, §3

LOLPE (Lolium perenne) [13] = assay: as above; conditions: g of AS/ha: (A) 120, (B) 1200, (C) 90
Description: as §1, §2, §3

[14] = test system: TRZAS (Triticum aestivum, summer wheat); assay: Greenhouse trial: pre-sowing application vs PE application (test method 6), crop, pre-sowing part; conditions: Triticum aestivum (summer wheat), in vivo
Description: as §1, §2
(§4) (notes: the term “seeds” also includes vegetative propagation forms such as, for example, rhizome pieces; abbreviations used: h light=hours of illumination, g of AS/ha=gram of active substance per hectare, l/ha=liter per hectare, S=sensitive, R=resistant) • 1. Pre-emergence action against weeds: seeds of various broad-leaved weed and weed grass biotypes (origins) were sown in a 8-13 cm diameter pot filled with natural soil of a standard field soil (loamy silt; non-sterile) and covered with a covering soil layer of about 1 cm. The pots were then cultivated in a greenhouse (12-16 h of light, temperature day 20-22° C., night 15-18° C.) until the time of application. […]

[15] = test system: HORVS (Hordeum vulgare, summer barley); assay: Greenhouse trial: pre-sowing application vs PE application (test method 6), crop, PE part; conditions: Hordeum vulgare (summer barley), in vivo
Description: as §1, §2, §4

[16] = test system: APESV (Apera Spica-venti); assay: Greenhouse trial: PO application (test method 2); conditions: g of AS/ha: (A) 120, (B) 1600, (C) 120
Description: as §1, §2, §3

STEME (Stellaria media) [17] = assay: Greenhouse trial: PO application (test method 2); conditions: g of AS/ha: (A) 120, (B) 1600, (C) 120
Description: as §1, §2, §3

POAAN (Poa annua) [18] = assay: Greenhouse trial: PO application (test method 2); conditions: g of AS/ha: (A) 120, (B) 1600, (C) 120
Description: as §1, §2, §3

[19] = test system: APESV (Apera Spica-venti); assay: Greenhouse trial: different sowing depths, PE application (test method 10); conditions: g of AS/ha: (A) 90, (B) 1200, (C) 90; for activity APESV 5 mm (visual scale 0-100%): sowing depth 5 mm; for activity APESV 20 mm (visual scale 0-100%): sowing depth 20 mm
Description: as §1, §2, §3

[20] = test system: MATCH (Matricaria chamomilla); assay: as above; conditions: g of AS/ha: (A) 90, (B) 1200, (C) 90; for activity MATCH 5 mm (visual scale 0-100%): sowing depth 5 mm; for activity MATCH 20 mm (visual scale 0-100%): sowing depth 20 mm
Description: as §1, §2, §3

[21] = test system: HORVS (Hordeum vulgare, summer barley); assay: Greenhouse trial: selective PO action (test method 5); conditions: Hordeum vulgare (summer barley), in vivo, po
Description: as §1, §2, §4

[22] = PE application, g of AS/ha: (A) 90, (B) 1200, (C) 90
[23] = application 7 days prior to sowing, g AS/ha: (A) 90, (B) 1200, (C) 90

Row | SMILES | activity MATCH resistant (visual scale 0-100%) [1] | activity MATCH sensitive (visual scale 0-100%) [1] | activity STEME resistant (visual scale 0-100%) [2] | activity STEME sensitive (visual scale 0-100%) [2] | activity LOLSS resistant (visual scale 0-100%) [3] | activity LOLSS sensitive (visual scale 0-100%) [3] | activity MATCH IU soil (visual scale 0-100%) [4] | Difference of the soil types, MATCH [4] | activity MATCH IU/EC73 soil (visual scale 0-100%) [4] | activity LOLPE IU soil (visual scale 0-100%) (LOLPE (Lolium perenne) [5]) | activity LOLPE IU/EC73 soil (visual scale 0-100%) (LOLPE (Lolium perenne) [5]) | activity AVEFA (visual scale 0-100%) (AVEFA (Avena fatua) [6]; [22]) | activity AVEFA (visual scale 0-100%) (AVEFA (Avena fatua) [6]; [23]) | activity LOLPE (visual scale 0-100%) (LOLPE (Lolium perenne) [7]; [22]) | activity LOLPE (visual scale 0-100%) (LOLPE (Lolium perenne) [7]; [23]) | Difference Δ^D of the soil types, HORVS [8] | activity on crop HORVS IU soil (visual scale 0-100%) [8] | activity on crop HORVS IU/EC73 soil (visual scale 0-100%) [8] | activity STEME (visual scale 0-100%) (STEME (Stellaria media) [9]; PE application) | activity STEME (visual scale 0-100%) (STEME (Stellaria media) [9]; incorporation into the soil) | further results
1 | COc1nc(C)nc(NC(=O)NS(=O)(=O)c2cc(I)ccc2C(=O)O)n1 [iodosulfuron] | 60% | 100% | 40% | 90% | 50% | 98% |  |  |  |  |  |  |  |  |  |  |  |  |  |  | 
2 | CC(C)N(C(=O)COc1nnc(C(F)(F)F)s1)c1ccc(F)cc1 [(A) flufenacet, N-(4-fluorophenyl)-N-(1-methylethyl)-2-[[5-(trifluoromethyl)-1,3,4-thiadiazol-2-yl]oxy]acetamide] | 30% | 30% | 0% | 0% | 10% | 85% | 80% | −75% | 5% | 97% | 75% | 63% | 70% | 75% | 80% | Δ^D − 10% | 10% | 0% | 0% | 20% | activity POAAN (visual scale 0-100%) (POAAN (Poa annua) [10]; PE application): 70%; activity POAAN (visual scale 0-100%) (POAAN (Poa annua) [10]; incorporation into the soil): 100%; activity AVEFA (visual scale 0-100%) (AVEFA (Avena fatua) [11]; irrigation from above): 85%; activity AVEFA (visual scale 0-100%) (AVEFA (Avena fatua) [11]; irrigation from below): 50%; activity MATCH (visual scale 0-100%) ([12]; irrigation from above): 49%; activity MATCH (visual scale 0-100%) ([12]; irrigation from below): 35%; activity LOLPE (visual scale 0-100%) (LOLPE (Lolium perenne) [13]; irrigation from above): 80%; activity LOLPE (visual scale 0-100%) (LOLPE (Lolium perenne) [13]; irrigation from below): 78%; activity on crop TRZAS (visual scale 0-100%) [14]: 40%; activity on crop HORVS (visual scale 0-100%) [15]: 80%; activity APESV (visual scale 0-100%) [16]: 60%; activity STEME (visual scale 0-100%) (STEME (Stellaria media) [17]): 30%; activity POAAN (visual scale 0-100%) (POAAN (Poa annua) [18]): 60%; activity APESV 5 mm (visual scale 0-100%) [19]: 65%; activity APESV 20 mm (visual scale 0-100%) [19]: 70%; activity MATCH 5 mm (visual scale 0-100%) [20]: 30%; activity MATCH 20 mm (visual scale 0-100%) [20]: 30%; activity on crop HORVS (visual scale 0-100%) [21]: 40%
3 | CCCN(CCC)C(=O)SCc1ccccc1 [(B) prosulfocarb, S-(phenylmethyl) dipropylcarbamothioate] | 25% | 0% | 40% | 70% | 65% | 85% | 10% | −10% | 0% | 33% | 0% | 10% | 10% | 5% | 0% | Δ^D + 3% | 0% | 3% | 30% | 65% | activity POAAN (visual scale 0-100%) (POAAN (Poa annua) [10]; PE application): 35%; activity AVEFA (visual scale 0-100%) (AVEFA (Avena fatua) [11]; irrigation from above): 5%; activity AVEFA (visual scale 0-100%) (AVEFA (Avena fatua) [11]; irrigation from below): 10%; activity MATCH (visual scale 0-100%) ([12]; irrigation from above): 0%; activity MATCH (visual scale 0-100%) ([12]; irrigation from below): 0%; activity LOLPE (visual scale 0-100%) (LOLPE (Lolium perenne) [13]; irrigation from above): 10%; activity LOLPE (visual scale 0-100%) (LOLPE (Lolium perenne) [13]; irrigation from below): 5%; activity on crop TRZAS (visual scale 0-100%) [14]: 20%; activity on crop HORVS (visual scale 0-100%) [15]: 15%; activity APESV (visual scale 0-100%) [16]: 20%; activity STEME (visual scale 0-100%) (STEME (Stellaria media) [17]): 30%; activity POAAN (visual scale 0-100%) (POAAN (Poa annua) [18]): 30%; activity APESV 5 mm (visual scale 0-100%) [19]: 50%; activity APESV 20 mm (visual scale 0-100%) [19]: 20%; activity MATCH 5 mm (visual scale 0-100%) [20]: 0%; activity MATCH 20 mm (visual scale 0-100%) [20]: 0%; activity on crop HORVS (visual scale 0-100%) [21]: 30%
